test system: NanoLuc; experiment: NanoLuc luciferase reporter expression from constitutive promoters and RBSs integrated with pNBU2; assay type: cell-based, B. thetaiotaomicron; conditions: RBS combined with promoter PBT1311, NanoLuc reporter, three biological replicates
Text: FIGS. 1A-1G. Genetic parts to control expression in B. thetaiotaomicron. (FIG. 1A) The ranges of gene expression are shown for the different gene regulation systems provided herein. (FIG. 1B) IntN2 catalyzes stable integration of pNBU2-based expression constructs into one of two attBT2 sites in the B. thetaiotaomicron genome. The two attBT2 sites (attBT2-1 at nucleotide (nt) 6,217,227 and attBT2-2 at nt 6,138,320) are in the 3′ ends of tRNA^Ser genes (BT_t71 and BT_t70, respectively). (FIG. 1C) Constitutive promoters and ribosome binding sites for the construction of gene expression libraries. The putative −33 and −7 regions of the PBT1311 promoter, the Shine-Delgarno sequence, and the start codon are indicated by black boxes. Numbers below the black boxes represent nucleotide locations relative the PBT1311 transcription start site. The 26 nt sequences introduced in the PAM promoters are shown (see also FIGS. 6A-6B). Numbers at the edges of the boxes indicate the PBT1311 nucleotides replaced or the insertion site within the promoter. The location of residues randomized in the rpiL* RBS library are indicated with gray arrows (for library A: nt −14, −13, −12; for library B: nt −21, −18, −15; and for library C: nt −17, −16, −11; nt numbering is relative to the translation start site). (FIG. 1D) Activity was measured for a set of constitutive promoters and their cognate RBSs. Furthermore, a set of constitutive promoters (PBT1311, PAM1, PAM2, PAM3, PAM4) was combined with RBSs of varying strengths. Gene expression was measured using a luciferase reporter (NanoLuc). (FIG. 1E) Three large RBS libraries were constructed and combined with promoter PBT1311 to span 10^3-fold in gene expression. For reference, the parent rpiL* RBS is indicated with a black arrow. For D and E, error bars represent the standard deviation of three independent biological replicates made on separate days. (FIG. 1F) The strength of each RBS was compared to the predicted free energy of folding for the mRNA (ΔGfold,). (FIG. 1G) Strong (SEQ ID NO: 210) and weak (SEQ ID NO: 211) consensus sequences for the rpiL* −21 to −11 RBS region targeted by mutagenesis (residue locations are stated relative to the translation start site) are provided. Frequency logos were generated for the 11 strongest and 11 weakest RBSs by comparing the frequency of each nucleotide at each position in that group with the frequency of that nucleotide in that position in the full library. Position −20 and −19 were not randomized and are thus are not shown in the frequency logos.
All genetic parts in this study were characterized using the integration vector pNBU2 to ensure genetic stability of the constructs (FIG. 1B). The pNBU2 plasmid encodes the intN2 tyrosine integrase, which mediates sequence-specific recombination between the attN site of pNBU2 and one of two attBT sites located in the 3′ ends of the two tRNA^Ser genes, BT_t70 and BT_t71, on the B. thetaiotaomicron chromosome (FIG. 1B). Insertion of the pNBU2 plasmid inactivates the tRNA^Ser gene, and simultaneous insertion into both BT_t70 and BT_t71 is unlikely due to the essentiality of tRNA^Ser. pNBU2-based vectors have been used for single-copy complementation in B. thetaiotaomicron in in vitro studies (Koropatkin N M et al. Nat. Rev. Microbiol. 10:323-35, 2012) and in vivo mouse models (Martens E C et al. Cell Host Microbe 4:447-57, 2008).
B. thetaiotaomicron genetic parts were characterized with NanoLuc luciferase (Hall M P et al. ACS Chem. Biol. 7:1848-1857, 2012), which is a small (19 kDa) modified shrimp luciferase. Efforts to use members of the green fluorescent protein family and a FMN-based fluorescent reporter were not successful. NanoLuc oxidizes the exogenously-added substrate furimazine to produce glow-type bioluminescence (Emax=460 nm) with a signal half-life of 2 hr. […]

Substance	Average Luminescence (RLU/CFU)
A2: RBS, SEQ ID NO: 15 (DNA TCCCGCATTTTAAAATAAAATAAATTATTTTTTTACTTAAACGAAT; chemistry not fully specified)	0.03616
A3: RBS, SEQ ID NO: 24 (DNA TCCCGCATTTTAAAATAAAATAAATTATTAGTTTAGTTAAACGAAT; chemistry not fully specified)	0.02867
A4: RBS, SEQ ID NO: 29 (DNA TCCCGCATTTTAAAATAAAATAAATTATTAATTTAATTAAACGAAT; chemistry not fully specified)	0.02664
A5: RBS, SEQ ID NO: 32 (DNA TCCCGCATTTTAAAATAAAATAAATTATTTCTTTACTTAAACGAAT; chemistry not fully specified)	0.02579
A6: RBS, SEQ ID NO: 33 (DNA TCCCGCATTTTAAAATAAAATAAATTATTTCTTTAATTAAACGAAT; chemistry not fully specified)	0.0256
A7: RBS, SEQ ID NO: 34 (DNA TCCCGCATTTTAAAATAAAATAAATTATTAGTTTAATTAAACGAAT; chemistry not fully specified)	0.02467
A8: RBS, SEQ ID NO: 44 (DNA TCCCGCATTTTAAAATAAAATAAATTATTAGTTTATTTAAACGAAT; chemistry not fully specified)	0.02026
A9: RBS, SEQ ID NO: 46 (DNA TCCCGCATTTTAAAATAAAATAAATTATTGTTTTACTTAAACGAAT; chemistry not fully specified)	0.0186
A10: RBS, SEQ ID NO: 49 (DNA TCCCGCATTTTAAAATAAAATAAATTATTGCTTTAGTTAAACGAAT; chemistry not fully specified)	0.01835
A12: RBS, SEQ ID NO: 56 (DNA TCCCGCATTTTAAAATAAAATAAATTATTGTTTTAATTAAACGAAT; chemistry not fully specified)	0.01552
A13: RBS, SEQ ID NO: 58 (DNA TCCCGCATTTTAAAATAAAATAAATTATTGATTTACTTAAACGAAT; chemistry not fully specified)	0.01484
A14: RBS, SEQ ID NO: 59 (DNA TCCCGCATTTTAAAATAAAATAAATTATTTCTTTATTTAAACGAAT; chemistry not fully specified)	0.01475
A15: RBS, SEQ ID NO: 64 (DNA TCCCGCATTTTAAAATAAAATAAATTATTATTTTACTTAAACGAAT; chemistry not fully specified)	0.01335
A16: RBS, SEQ ID NO: 65 (DNA TCCCGCATTTTAAAATAAAATAAATTATTTATTTACTTAAACGAAT; chemistry not fully specified)	0.01329
A17: RBS, SEQ ID NO: 66 (DNA TCCCGCATTTTAAAATAAAATAAATTATTTTTTTAGTTAAACGAAT; chemistry not fully specified)	0.013
A18: RBS, SEQ ID NO: 69 (DNA TCCCGCATTTTAAAATAAAATAAATTATTCATTTATTTAAACGAAT; chemistry not fully specified)	0.01237
A19: RBS, SEQ ID NO: 70 (DNA TCCCGCATTTTAAAATAAAATAAATTATTTTTTTATTTAAACGAAT; chemistry not fully specified)	0.01206
A20: RBS, SEQ ID NO: 71 (DNA TCCCGCATTTTAAAATAAAATAAATTATTTATTTATTTAAACGAAT; chemistry not fully specified)	0.01179

Substance	Average Luminescence (RLU/CFU)
A21: RBS, SEQ ID NO: 73 (DNA TCCCGCATTTTAAAATAAAATAAATTATTTATTTACTTAAACGAAT; chemistry not fully specified)	0.01018
A22: RBS, SEQ ID NO: 78 (DNA TCCCGCATTTTAAAATAAAATAAATTATTGCTTTATTTAAACGAAT; chemistry not fully specified)	0.009586
A23: RBS, SEQ ID NO: 79 (DNA TCCCGCATTTTAAAATAAAATAAATTATTAGTTTACTTAAACGAAT; chemistry not fully specified)	0.009507
A24: RBS, SEQ ID NO: 83 (DNA TCCCGCATTTTAAAATAAAATAAATTATTCTTTTACTTAAACGAAT; chemistry not fully specified)	0.009158
A25: RBS, SEQ ID NO: 84 (DNA TCCCGCATTTTAAAATAAAATAAATTATTCCTTTAATTAAACGAAT; chemistry not fully specified)	0.008671
A26: RBS, SEQ ID NO: 87 (DNA TCCCGCATTTTAAAATAAAATAAATTATTACTTTATTTAAACGAAT; chemistry not fully specified)	0.008113
A27: RBS, SEQ ID NO: 89 (DNA TCCCGCATTTTAAAATAAAATAAATTATTGGTTTAGTTAAACGAAT; chemistry not fully specified)	0.007908
A28: RBS, SEQ ID NO: 94 (DNA TCCCGCATTTTAAAATAAAATAAATTATTCTTTTATTTAAACGAAT; chemistry not fully specified)	0.006884
A29: RBS, SEQ ID NO: 95 (DNA TCCCGCATTTTAAAATAAAATAAATTATTCCTTTATTTAAACGAAT; chemistry not fully specified)	0.006833
A30: RBS, SEQ ID NO: 101 (DNA TCCCGCATTTTAAAATAAAATAAATTATTCCTTTACTTAAACGAAT; chemistry not fully specified)	0.005604
A31: RBS, SEQ ID NO: 103 (DNA TCCCGCATTTTAAAATAAAATAAATTATTGGTTTATTTAAACGAAT; chemistry not fully specified)	0.005462
A32: RBS, SEQ ID NO: 104 (DNA TCCCGCATTTTAAAATAAAATAAATTATTCTTTTAGTTAAACGAAT; chemistry not fully specified)	0.005311
A33: RBS, SEQ ID NO: 106 (DNA TCCCGCATTTTAAAATAAAATAAATTATTTCTTTAGTTAAACGAAT; chemistry not fully specified)	0.005258
A34: RBS, SEQ ID NO: 107 (DNA TCCCGCATTTTAAAATAAAATAAATTATTTGTTTACTTAAACGAAT; chemistry not fully specified)	0.005181
A35: RBS, SEQ ID NO: 110 (DNA TCCCGCATTTTAAAATAAAATAAATTATTCATTTAGTTAAACGAAT; chemistry not fully specified)	0.004513
A36: RBS, SEQ ID NO: 111 (DNA TCCCGCATTTTAAAATAAAATAAATTATTTGTTTAGTTAAACGAAT; chemistry not fully specified)	0.004309
A37: RBS, SEQ ID NO: 113 (DNA TCCCGCATTTTAAAATAAAATAAATTATTTGTTTAATTAAACGAAT; chemistry not fully specified)	0.003964
A38: RBS, SEQ ID NO: 114 (DNA TCCCGCATTTTAAAATAAAATAAATTATTCCTTTAGTTAAACGAAT; chemistry not fully specified)	0.003824

Reference: patent publication US11591604B2, “Gene expression in Bacteroides” (Massachusetts Institute of Technology, priority 2015, dated 2023)
